Laboratory results as given in ChEMBL document CHEMBL6087433, “Discovery of ART0380, a Potent and Selective ATR Kinase Inhibitor Undergoing Phase 2 Clinical Studies for the Treatment of Advanced or Metastatic Solid Cancers” (J Med Chem, 2024).
Converted amounts (≈) assume the structure as drawn.

Legend:
in vivo [1] = settings: beagle, dog, iv, 1 mg/kg
Description: Half life in Beagle dog at 1 mg/kg, iv

LoVo [2] = assay: cells; settings: Homo sapiens
Description: Antiproliferative activity against human LoVo cells assessed as inhibition of cell growth incubated for 7 days by CellTiter-Glo 2.0 assay

in vitro [3] = settings: mouse, hepatocytes
Description: Intrinsic clearance in mouse hepatocytes

in vivo [4] = settings: CD-1, mouse, iv, 1 mg/kg
Description: Half life in CD-1 mouse at 1 mg/kg, iv

in vitro [5] = settings: cynomolgus monkey, plasma
Description: Protein binding in cynomolgus monkey plasma assessed as free fraction at 5 uM incubated for 5 hrs by equilibrium dialysis method

in vivo [6] = settings: CD-1, mouse, plasma, iv, 1 mg/kg
in vivo [7] = settings: beagle, dog, iv, 1 mg/kg; remark: listed apart in the source
Description: Volume of distribution at steady state in Beagle dog at 1 mg/kg, iv

Cytochrome P450 2B6 = molecular target: T1, Cytochrome P450 2B6 (Homo sapiens, UniProt P20813)
T1 sequence (P20813 whole entry): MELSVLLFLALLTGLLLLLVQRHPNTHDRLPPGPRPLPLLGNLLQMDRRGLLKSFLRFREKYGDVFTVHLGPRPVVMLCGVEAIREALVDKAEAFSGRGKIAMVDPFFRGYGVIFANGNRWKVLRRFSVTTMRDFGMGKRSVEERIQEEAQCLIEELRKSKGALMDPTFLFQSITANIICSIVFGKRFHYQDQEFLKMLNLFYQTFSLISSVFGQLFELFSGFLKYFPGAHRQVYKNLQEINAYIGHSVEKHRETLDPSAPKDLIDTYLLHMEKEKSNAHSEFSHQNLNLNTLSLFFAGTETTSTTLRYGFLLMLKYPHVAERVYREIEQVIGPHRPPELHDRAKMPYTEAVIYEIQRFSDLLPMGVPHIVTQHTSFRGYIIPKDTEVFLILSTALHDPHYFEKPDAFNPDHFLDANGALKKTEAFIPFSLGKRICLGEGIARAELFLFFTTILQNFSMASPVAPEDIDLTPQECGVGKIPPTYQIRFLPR
Description: Inhibition of CYP2B6 in human liver microsomes by LC-MS/MS analysis

in vitro [8] = settings: human, human liver microsomes
in vitro [9] = settings: cynomolgus monkey, hepatocytes
Description: Intrinsic clearance in cynomolgus monkey hepatocytes

in vitro [10] = settings: rat, hepatocytes
Description: Intrinsic clearance in rat hepatocytes

[11] = molecular target: Phosphatidylinositol 4,5-bisphosphate 3-kinase catalytic subunit alpha isoform (Homo sapiens, UniProt P42336)
Phosphatidylinositol 4,5-bisphosphate 3-kinase catalytic subunit alpha isoform, sequence (P42336 whole entry, canonical isoform): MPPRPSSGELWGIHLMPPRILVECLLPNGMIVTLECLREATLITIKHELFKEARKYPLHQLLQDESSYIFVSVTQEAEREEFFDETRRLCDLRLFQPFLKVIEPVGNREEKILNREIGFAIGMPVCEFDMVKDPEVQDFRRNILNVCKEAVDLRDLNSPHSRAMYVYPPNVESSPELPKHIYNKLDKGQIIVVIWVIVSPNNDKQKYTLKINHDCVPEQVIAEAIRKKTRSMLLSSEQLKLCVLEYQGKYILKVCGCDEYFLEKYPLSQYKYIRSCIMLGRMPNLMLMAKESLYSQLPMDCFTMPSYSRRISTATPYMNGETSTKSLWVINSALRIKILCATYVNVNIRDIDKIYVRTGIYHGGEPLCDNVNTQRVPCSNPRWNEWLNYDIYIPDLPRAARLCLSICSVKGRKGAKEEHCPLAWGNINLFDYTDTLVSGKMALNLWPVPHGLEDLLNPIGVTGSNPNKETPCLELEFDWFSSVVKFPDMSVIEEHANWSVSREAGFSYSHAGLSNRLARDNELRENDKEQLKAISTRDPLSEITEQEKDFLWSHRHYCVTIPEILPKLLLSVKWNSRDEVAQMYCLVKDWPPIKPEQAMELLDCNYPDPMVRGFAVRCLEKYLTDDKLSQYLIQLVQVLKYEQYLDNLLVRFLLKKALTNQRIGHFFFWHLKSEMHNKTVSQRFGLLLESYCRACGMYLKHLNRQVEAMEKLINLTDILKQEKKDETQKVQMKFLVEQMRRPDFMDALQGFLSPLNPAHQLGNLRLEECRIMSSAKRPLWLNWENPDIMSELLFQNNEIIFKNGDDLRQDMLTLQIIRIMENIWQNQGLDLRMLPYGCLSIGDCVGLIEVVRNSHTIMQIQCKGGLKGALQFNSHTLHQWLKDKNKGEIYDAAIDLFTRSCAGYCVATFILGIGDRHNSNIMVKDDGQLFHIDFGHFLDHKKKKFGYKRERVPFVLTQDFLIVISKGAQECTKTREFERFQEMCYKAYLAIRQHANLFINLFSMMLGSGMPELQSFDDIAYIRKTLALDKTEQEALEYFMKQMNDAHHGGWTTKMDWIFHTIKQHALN
Description: Inhibition of PI3Kalpha (unknown origin) by ADP-Glo assay

Cytochrome P450 1A2 = molecular target: T2, Cytochrome P450 1A2 (Homo sapiens, UniProt P05177)
T2 sequence (P05177 whole entry): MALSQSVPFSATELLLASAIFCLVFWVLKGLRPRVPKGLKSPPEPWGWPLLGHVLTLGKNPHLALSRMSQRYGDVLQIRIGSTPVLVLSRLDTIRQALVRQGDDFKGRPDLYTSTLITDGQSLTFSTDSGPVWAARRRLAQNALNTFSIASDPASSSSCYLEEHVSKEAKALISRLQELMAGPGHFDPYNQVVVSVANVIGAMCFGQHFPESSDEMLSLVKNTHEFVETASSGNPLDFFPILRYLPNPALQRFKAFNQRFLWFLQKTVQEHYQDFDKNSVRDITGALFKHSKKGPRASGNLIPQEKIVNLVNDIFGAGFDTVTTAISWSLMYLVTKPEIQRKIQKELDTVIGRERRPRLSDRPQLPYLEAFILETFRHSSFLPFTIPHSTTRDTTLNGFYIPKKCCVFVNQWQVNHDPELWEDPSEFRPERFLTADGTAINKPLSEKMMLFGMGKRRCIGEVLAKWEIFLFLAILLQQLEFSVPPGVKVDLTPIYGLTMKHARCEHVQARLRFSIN

in vitro [12] = settings: mouse, plasma
Description: Protein binding in mouse plasma assessed as free fraction at 5 uM incubated for 5 hrs by equilibrium dialysis method

in vivo [13] = settings: CD-1, mouse, po, 30 mg/kg
physchem = settings: aqueous buffer, pH 7.4
Description: Thermodynamic solubility of the compound in aqueous buffer at pH 7.4

Cytochrome P450 2D6 = Cytochrome P450 2D6 (Homo sapiens, UniProt P10635)
Cytochrome P450 2D6, sequence (P10635 whole entry): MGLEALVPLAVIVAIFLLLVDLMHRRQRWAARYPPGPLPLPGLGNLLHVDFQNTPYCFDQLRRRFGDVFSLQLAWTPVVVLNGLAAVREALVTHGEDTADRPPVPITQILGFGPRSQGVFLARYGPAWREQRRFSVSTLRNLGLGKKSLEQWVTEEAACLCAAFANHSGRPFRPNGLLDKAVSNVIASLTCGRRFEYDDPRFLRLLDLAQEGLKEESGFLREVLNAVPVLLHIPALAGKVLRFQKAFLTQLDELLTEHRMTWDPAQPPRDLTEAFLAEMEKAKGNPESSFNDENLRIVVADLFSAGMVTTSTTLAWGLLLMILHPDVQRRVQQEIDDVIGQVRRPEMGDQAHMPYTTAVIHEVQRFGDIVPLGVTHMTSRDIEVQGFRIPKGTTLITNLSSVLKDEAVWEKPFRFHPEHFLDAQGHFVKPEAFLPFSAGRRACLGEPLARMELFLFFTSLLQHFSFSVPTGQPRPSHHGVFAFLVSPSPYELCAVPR

in vivo [14] = settings: Sprague-Dawley, rat, po, 10 mg/kg
[15] = molecular target: Voltage-gated inwardly rectifying potassium channel KCNH2 (Homo sapiens, UniProt Q12809)
Voltage-gated inwardly rectifying potassium channel KCNH2, sequence (Q12809 whole entry): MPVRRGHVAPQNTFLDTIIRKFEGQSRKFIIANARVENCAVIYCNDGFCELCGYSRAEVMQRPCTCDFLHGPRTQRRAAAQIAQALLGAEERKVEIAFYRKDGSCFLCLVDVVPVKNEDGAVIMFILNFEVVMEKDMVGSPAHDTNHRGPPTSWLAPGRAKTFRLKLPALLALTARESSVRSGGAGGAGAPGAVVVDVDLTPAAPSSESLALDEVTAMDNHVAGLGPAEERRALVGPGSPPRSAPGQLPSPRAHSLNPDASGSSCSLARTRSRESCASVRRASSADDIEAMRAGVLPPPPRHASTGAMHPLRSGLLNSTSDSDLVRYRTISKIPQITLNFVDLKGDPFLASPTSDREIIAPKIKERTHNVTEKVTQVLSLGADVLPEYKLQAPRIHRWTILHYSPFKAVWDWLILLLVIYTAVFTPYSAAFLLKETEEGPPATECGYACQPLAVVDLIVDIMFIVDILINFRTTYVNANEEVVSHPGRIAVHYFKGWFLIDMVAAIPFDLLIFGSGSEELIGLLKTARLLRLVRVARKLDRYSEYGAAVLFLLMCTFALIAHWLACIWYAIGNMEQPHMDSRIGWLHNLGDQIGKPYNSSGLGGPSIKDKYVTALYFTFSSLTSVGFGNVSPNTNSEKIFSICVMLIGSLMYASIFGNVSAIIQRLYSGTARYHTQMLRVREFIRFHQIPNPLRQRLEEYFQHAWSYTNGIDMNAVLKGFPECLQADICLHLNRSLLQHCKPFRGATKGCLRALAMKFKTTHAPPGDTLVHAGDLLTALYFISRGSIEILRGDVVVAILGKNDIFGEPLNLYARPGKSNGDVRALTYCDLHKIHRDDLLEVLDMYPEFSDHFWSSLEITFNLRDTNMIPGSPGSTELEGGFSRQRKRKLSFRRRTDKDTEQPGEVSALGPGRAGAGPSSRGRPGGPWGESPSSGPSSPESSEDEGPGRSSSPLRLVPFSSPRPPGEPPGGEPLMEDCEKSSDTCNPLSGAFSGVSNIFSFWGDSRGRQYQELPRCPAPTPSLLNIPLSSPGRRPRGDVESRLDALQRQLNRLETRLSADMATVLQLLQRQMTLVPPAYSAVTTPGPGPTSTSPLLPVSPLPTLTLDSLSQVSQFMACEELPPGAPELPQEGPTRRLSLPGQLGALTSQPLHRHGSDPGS
Description: Inhibition of hERG transfected in CHO cells by patch clamp automated cellular electrophysiology analysis

in vivo [16] = settings: Sprague-Dawley, rat, plasma, iv, 1 mg/kg
CYP3A4 = CYP3A4 (Homo sapiens, UniProt P08684); assay: in vitro; settings: human liver microsomes, probe midazolam
CYP3A4, sequence (P08684 whole entry): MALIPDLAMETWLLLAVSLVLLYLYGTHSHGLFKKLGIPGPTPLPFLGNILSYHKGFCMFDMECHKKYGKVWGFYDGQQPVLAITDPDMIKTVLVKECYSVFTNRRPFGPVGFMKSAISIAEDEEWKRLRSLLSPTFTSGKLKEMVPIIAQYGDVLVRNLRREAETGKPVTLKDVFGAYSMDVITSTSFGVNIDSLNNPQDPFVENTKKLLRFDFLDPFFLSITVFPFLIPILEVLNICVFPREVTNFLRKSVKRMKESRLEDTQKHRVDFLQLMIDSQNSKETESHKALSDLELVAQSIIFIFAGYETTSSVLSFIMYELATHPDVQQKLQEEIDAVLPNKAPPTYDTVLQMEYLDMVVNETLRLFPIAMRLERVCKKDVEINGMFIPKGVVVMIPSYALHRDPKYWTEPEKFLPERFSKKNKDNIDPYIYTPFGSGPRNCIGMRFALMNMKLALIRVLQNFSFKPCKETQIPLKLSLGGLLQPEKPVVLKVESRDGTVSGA

in vivo [17] = settings: Beagle, dog, po, 10 mg/kg
in vivo [18] = settings: CD-1, mouse, iv, 1 mg/kg; remark: listed apart in the source
Description: Volume of distribution at steady state in CD-1 mouse at 1 mg/kg, iv

Cytochrome P450 2C8 = molecular target: T3, Cytochrome P450 2C8 (Homo sapiens, UniProt P10632)
T3 sequence (P10632 whole entry): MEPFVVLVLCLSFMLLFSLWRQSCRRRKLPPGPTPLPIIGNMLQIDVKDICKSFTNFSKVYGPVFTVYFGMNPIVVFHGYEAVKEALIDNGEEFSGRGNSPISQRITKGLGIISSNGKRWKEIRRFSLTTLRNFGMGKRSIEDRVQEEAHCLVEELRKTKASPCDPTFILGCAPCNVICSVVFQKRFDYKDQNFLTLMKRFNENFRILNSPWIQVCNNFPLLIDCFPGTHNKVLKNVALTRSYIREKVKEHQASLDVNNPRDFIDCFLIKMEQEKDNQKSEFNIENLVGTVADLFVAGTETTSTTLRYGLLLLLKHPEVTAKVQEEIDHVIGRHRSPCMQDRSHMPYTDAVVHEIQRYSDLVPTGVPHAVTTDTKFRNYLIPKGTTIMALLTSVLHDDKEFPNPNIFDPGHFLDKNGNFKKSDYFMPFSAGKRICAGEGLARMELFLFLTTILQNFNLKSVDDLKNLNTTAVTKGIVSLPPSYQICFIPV
Description: Inhibition of CYP2C8 in human liver microsomes by LC-MS/MS analysis

[19] = molecular target: Phosphatidylinositol 4,5-bisphosphate 3-kinase catalytic subunit gamma isoform (Homo sapiens, UniProt P48736)
Phosphatidylinositol 4,5-bisphosphate 3-kinase catalytic subunit gamma isoform, sequence (P48736 whole entry, canonical isoform): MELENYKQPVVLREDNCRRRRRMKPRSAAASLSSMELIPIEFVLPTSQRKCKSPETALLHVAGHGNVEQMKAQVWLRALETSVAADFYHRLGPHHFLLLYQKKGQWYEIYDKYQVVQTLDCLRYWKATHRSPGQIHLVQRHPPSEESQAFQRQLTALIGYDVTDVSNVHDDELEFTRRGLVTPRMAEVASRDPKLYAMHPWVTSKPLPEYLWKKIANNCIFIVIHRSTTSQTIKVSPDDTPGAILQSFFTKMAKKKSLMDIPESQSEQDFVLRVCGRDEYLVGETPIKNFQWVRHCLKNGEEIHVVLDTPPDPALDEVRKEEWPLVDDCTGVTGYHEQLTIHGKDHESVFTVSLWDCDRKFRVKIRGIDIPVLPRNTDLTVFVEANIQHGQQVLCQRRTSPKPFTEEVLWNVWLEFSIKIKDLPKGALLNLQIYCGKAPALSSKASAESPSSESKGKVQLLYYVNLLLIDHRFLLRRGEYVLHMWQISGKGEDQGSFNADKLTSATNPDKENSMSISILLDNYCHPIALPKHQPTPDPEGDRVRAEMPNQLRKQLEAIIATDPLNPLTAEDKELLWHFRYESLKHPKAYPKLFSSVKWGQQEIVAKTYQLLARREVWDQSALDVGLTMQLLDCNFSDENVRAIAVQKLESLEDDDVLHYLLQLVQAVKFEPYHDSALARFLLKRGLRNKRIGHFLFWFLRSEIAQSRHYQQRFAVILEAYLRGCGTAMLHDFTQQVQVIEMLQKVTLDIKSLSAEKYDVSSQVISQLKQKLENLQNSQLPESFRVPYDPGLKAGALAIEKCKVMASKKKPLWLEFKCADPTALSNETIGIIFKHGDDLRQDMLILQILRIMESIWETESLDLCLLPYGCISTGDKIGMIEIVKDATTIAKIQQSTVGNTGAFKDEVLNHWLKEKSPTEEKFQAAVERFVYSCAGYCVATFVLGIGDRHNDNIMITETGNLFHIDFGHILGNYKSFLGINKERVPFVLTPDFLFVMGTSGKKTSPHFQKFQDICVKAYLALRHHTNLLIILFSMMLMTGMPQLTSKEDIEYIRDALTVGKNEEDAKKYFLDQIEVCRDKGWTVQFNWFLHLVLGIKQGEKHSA
Description: Inhibition of PI3Kgamma (unknown origin) by ADP-Glo assay

LoVo [20] = assay: animal or person; settings: Mus musculus, po, 480 h, read-out: TGI
in vitro [21] = settings: human, hepatocytes
Description: Intrinsic clearance in human hepatocytes

[22] = molecular target: Serine/threonine-protein kinase mTOR (Homo sapiens, UniProt P42345)
in vivo [23] = settings: Sprague-Dawley, rat, po, 10 mg/kg; remark: listed apart in the source
in vivo [24] = settings: Sprague-Dawley, rat, iv, 1 mg/kg
Description: Half life in Sprague-Dawley rat at 1 mg/kg, iv

in vivo [25] = settings: cynomolgus monkey, po, 10 mg/kg

With `C[C@@H]1COCCN1c1cc(N=[S@@](C)(=O)C2CC2)nc(-c2ccnc(N)c2)n1` as the compound, how does the half-life (in vivo [1]) read?
Its half-life is 186 min.

What about the EC50 (LoVo [2]) of the same compound?
The EC50 was 1.15 µM.

And the CLint scaled (in vitro [3])?
Its CLint scaled is 22 mL/min/kg.

What about the half-life (in vivo [4]) of the same compound?
The half-life was 168 min.

What about the fraction unbound at 5 h, 5 µM (in vitro [5]) of the same compound?
Its fraction unbound at 5 h, 5 µM is 0.54.

What about the clearance (in vivo [6]) of the same compound?
The clearance was 69 mL/min/kg.

What about the Vd (in vivo [7]) of the same compound?
Its Vd is 3.6 L/kg.

And the IC50 (Cytochrome P450 2B6)?
The IC50 was over 10 µM.

What about the CLint scaled at 0.75 h, 1 µM (in vitro [8]) of the same compound?
Its CLint scaled at 0.75 h, 1 µM is 2.3 mL/min/kg.

What about the CLint scaled (in vitro [9]) of the same compound?
Its CLint scaled is 10 mL/min/kg.

What about the CLint scaled (in vitro [10]) of the same compound?
Its CLint scaled is 29 mL/min/kg.

What about the IC50 [11] of the same compound?
The IC50 was 29 µM.

And the IC50 (Cytochrome P450 1A2)?
The IC50 was over 10 µM.

What about the fraction unbound at 5 h, 5 µM (in vitro [12]) of the same compound?
Its fraction unbound at 5 h, 5 µM is 0.33.

What about the Cmax (in vivo [13]) of the same compound?
The Cmax was 16.1 µM.

What about the solubility thermodynamic (physchem) of the same compound?
Its solubility thermodynamic is 1500 µg/mL (≈ 3.86 mM).

And the IC50 (Cytochrome P450 2D6)?
The IC50 was over 10 µM.

And the AUC(0-t) (in vivo [14])?
The AUC(0-t) was 3.78 µM·h.

And the IC50 [15]?
Its IC50 is over 10 µM.

And the clearance (in vivo [16])?
Its clearance is 98 mL/min/kg.

What about the inhibition at 0.5 h, 10 µM (CYP3A4) of the same compound?
The inhibition at 0.5 h, 10 µM was 0.96%.

What about the Tmax (in vivo [17]) of the same compound?
Its Tmax is 34.8 min.

What about the Vd (in vivo [18]) of the same compound?
The Vd was 4.9 L/kg.

What about the IC50 (Cytochrome P450 2C8) of the same compound?
Its IC50 is over 10 µM.

And the IC50 [19]?
Its IC50 is over 50 µM.

What about the inhibition in vivo at 30 mg/kg (LoVo [20]) of the same compound?
The inhibition in vivo at 30 mg/kg was 72%.

And the CLint scaled (in vitro [21])?
Its CLint scaled is 8 mL/min/kg.

What about the IC50 [22] of the same compound?
The IC50 was 8.38 µM.

And the Cmax (in vivo [23])?
The Cmax was 5.56 µM.

And the half-life (in vivo [24])?
Its half-life is 36 min.

What about the Tmax (in vivo [25]) of the same compound?
The Tmax was 49.8 min.
